In patent US20090317419A1, “Tetramers” (Duke University, priority 2008, published 2009):
Ends that are not written are not given here. * marks the point of attachment. Biotin = O=C1N[C@H]2[C@H](CS[C@H]2CCCCC(=O)*)N1

How the values were obtained:
[1] = system: mAb cell lines P3X63/Ag8, F39F, 7B2, 13H11; settings: flow cytometry, all Ig+ cell lines tested
Procedure: (§1) Use of antibody-coated beads and cell lines for tetramer quality control. Tetramer stocks were diluted to twice the desired final concentration in PBS containing 1% BSA. An equal volume of beads or cells at 5×10^5 up to 2×10^6 per sample were mixed with tetramer and incubated (4° C.×30 min). Beads or cells were washed with PBS+1% BSA before being fixed in 2% methanol-free formaldehyde (Polysciences, Inc, Warrington, Pa.) in PBS. Samples were stored at 4° C. prior to being analyzed by flow cytometry (BD LSR II, Becton Dickinson, Mountain View, Calif.). Data were analyzed using FlowJo (Tree Star, Ashland, Oreg.). For tetramer titration 40-80 ng tetramer per 10^6 cells/beads was serially diluted over 8-12 points. Optimal concentrations determined by this method were used for subsequent experiments. For cold competition experiments the incubation step was performed by staining with 10-fold excess unlabeled tetramer (4° C.×30 min) prior to the addition of APC-labeled tetramer. For cell dilution experiments, a mixture of mAb cell lines was made and then 1:10 serial dilutions of cells prepared. For cross competition experiments, mixtures of cells were prepared and then stained singly with anti-IgG reagents or tetramer, or the cells were doubly stained with both reagents either sequentially or concurrently.

[2] = system: antibody coated beads (P3X63/Ag8, A32, 7B9, F39F, 7B2, 13H11, 2F5); settings: flow cytometry, all antibody coated beads tested
Procedure: (§2) Antibody-coated beads. Carboxyl-polystyrene beads (3.0-3.4 μm) (Spherotech, Inc., Lake Forest, Ill.) were resuspended in 0.01 M sodium acetate buffer (pH 5.0) and reacted (20° C.×1 hr) with 1-ethyl-3-(3-dimethylaminopropyl) carbodiimide hydrochloride (EDC) (Sigma-Aldrich, Co., St. Louis, Mo.) at a ratio of 3.1 mg beads to 1 mg EDC. Beads were washed with sodium acetate buffer, resuspended in a minimal volume before adding purified mAb in the same buffer (ratio of 16 mg beads to 1 mg mAb), incubated (20° C.×2 hrs), then washed with sodium acetate buffer. Beads were resuspended at 5% in PBS containing 1% bovine serum albumin and 0.02% sodium azide.
as §1

[3] = system: total naïve splenic BALB/c B cells; settings: APC-labeled tetramer
Procedure: (§3) Cell isolation, serum collection, and PBMC isolations. Heparinized or non-heparanized blood was collected sub-mandibularly 10 days after immunizations. For preparation of peripheral blood lymphocytes for B cell tetramer analysis, PBMC were isolated from blood collected in heparinized tubes (0.2 ml) using Lympholyte M (Cederlane). For Luminex and ELISA assays, sera was isolated from non-heparanized blood and stored at −20° C. until use. Spleen, bone marrow (BM), and peritoneal cavity (PerC) cells were also collected. For most immunizations, tissues were harvested after the 4th boost, except for kinetic studies, in which tissues from mice were harvested after 1, 3 or 7 days after a single immunization. For BM preparations, femora and tibiae were removed, aspirated with tissue medium using 23 gauge needles, filtered with 70 μm cell strainers (BD labware), and RBC-depleted using Tris-buffered ammonium chloride lysis. For splenocyte preparation, spleens were harvested and dissociated into single-cell suspensions either by passage through 70 μm cell strainers in tissue medium or by using frosted glass slides, and blood erythrocytes were depleted with ammonium chloride lysis. For isolation of peritoneal cells, peritoneal cavities of sacrificed mice were lavaged by injection with 10 ml of PBS, followed by gentle massage of the abdomen, and withdrawal of the peritoneal exudates. BM, splenic, and peritoneal single cell suspensions were centrifuged at 1500 rpm for 5 min and resuspended in 5, 10, and 1 ml of tissue media, respectively, for cell counts and immunofluorescence staining. Cell counts were performed in duplicate on a Coulter ZI Dual Threshold Cell Counter (Coulter).
(§4) Antibodies and flow cytometry. Immunofluorescent staining of single cell suspensions (≧2×10^6) was conducted using pre-mixed combinations of fluorochrome-labeled antibodies and APC-conjugated B cell tetramers at empirically-determined optimal concentrations. All antibodies were from BD unless otherwise stated. […] Other reagents included biotinylated antibodies against dump channel markers: Thy1 (Ox7; Abcam), F4/80 (BM8; Abcam), CD11c (clone HL3), Gr-1 (clone RB6-8C5), TER-119, and NK-1.1 (clone PK136), secondary staining SA-Texas Red conjugate; v-amine live/dead violet dye (Molecular Probes), and Fc block (anti-CD16/32; clone 2.4G2).
(§5) Staining was conducted at 4° C. in several sequential steps in FACS staining buffer (1×PBS with 2% FCS, 0.1% NaN3), washing twice between steps. First, cells were incubated with v-amine live/dead dye for 15 min. Next, cells were stained with APC-labeled tetramers for 30 min. Where applicable, this was preceded by addition of cold tetramer at 10 fold molar excess for 1 h. Finally, cells were stained with Fc block for 30 min, followed by incubation with combinations of primary antibody cocktails for 30 min, and secondary staining with SA-Texas Red for 30 min.
(§6) Data were acquired using an LSRII flow cytometer and Cell Quest software (BD Immunocytometry systems). A minimum of 250000 events were acquired per sample. FACS Analysis was performed using FlowJo software (Tree Star). For analysis, single cells were positively gated based on their forward scatter height vs. forward scatter area and side scatter height vs. side scatter area profiles, lymphocytes were then positively gated based on their forward and side scatter profile (live lymphocyte gate), residual dead cells were excluded with negative gating on v-amine live/dead dye, and all irrelevant non-B cells were excluded with negative gating on dump markers Thy1, F4/80, CD11c, Gr-1, TER-119, and NK-1.1.

[4] = gp41 HR2 peptide immunization, serum anti-2F5 epitope Ab ELISA, BALB/c; assay type: in vivo, BALB/c mice; settings: peptide in Emulsigen + oCpG, i.p., ELISA 10 days after each immunization
Procedure: (§7) Peptide immunogen formulation, dose, route of immunization, and immunization schedule. The peptide immunogen used was a gp41 heptad repeat-2 (HR2) DP 1 78Q16L peptide ([…]), synthesized and purified from Primm, and verified to be >95% purified as determined by mass spectrometry. Lyophilized peptide immunogens stored at 4° C. (Primm Biotechnology) were reconstituted by dissolving in DMSO at 8 mg/ml and bringing up to 1 mg/ml in saline. Adjuvanting was done by dissolving mouse oCpG, (5′-[…]-3′; Midland Certified Reagent Company) in saline at 1 mg/ml and first mixing with Oil/water Emulsigen (MVP laboratories) in saline, then with peptide, such as to create a final mixture of 50 μg/ml oCpG, 125 μg/ml peptide, 10% Emulsigen (for i.p. immunizations) and 200 μg/ml oCpG, 500 μg/ml peptide, 10% Emulsigen (for i.m. immunizations). Immunization primes and boosts were all done at a single site intraperitoneally using a volume of 200 μl of the above formulation, such that mice in all instances were injected with 25 μg peptide and 10 μg oCpG. Mice were primed for 10 days and then boosted four times, every 14 days.
(§8) Cell isolation, serum collection, and PBMC isolations.
(§9) ELISA assays. […] Optical density was read at 405 nm with a BioRad 680 microplate reader. […]

[5] = gp41 HR2 peptide immunization, serum anti-2F5 epitope Ab ELISA, C57BL/6; assay type: in vivo, C57BL/6 mice; settings: C57BL/6, peptide in Emulsigen + oCpG, i.p., ELISA 10 days after each immunization
Procedure: as §7, §8, §9

[6] = system: mAb F39F (anti-gp120 V3); settings: SPR, mAb F39F captured, 25° C., PBS pH 7.4
Procedure: Surface Plasmon Resonance (SPR) measurements of tetramer binding to peptide epitopes. Tetramer binding assays were carried out on a BIAcore 3000 (BIAcore/GE Healthcare, Piscataway, N.J.) instrument using mAbs against each specific B cell epitope.
Each mAb (about 1000 RU) was first captured on anti-human Fc mAb (Pierce, Rockford, Ill.) immobilized on a CM5 sensor chip. Approximately 3000 RU of anti-human Fc mAb was covalently coupled to each flow cell of the sensor chip as described before (Alam et al, Journal of Immunology 178:4424-4435 (2007)). Each B cell tetramer was injected over its epitope specific mAb or a control surface immobilized with irrelevant mAb. For each tetramer binding curve, non-specific binding signals obtained from the control surface were subtracted. The binding assay was monitored at 25° C. and using PBS, pH 7.4, as the running buffer. The BIAevaluation 3.0 software (BIAcore/GE Healthcare, Piscataway, N.J.) was used for SPR binding data analyses.

[7] = system: mAb 7B9 (anti-gp120 V3 62.19); settings: SPR, mAb 7B9 captured
[8] = system: mixture of F39F cells and P3X63/Ag8 cells; settings: 6% F39F cells, 94% P3X63/Ag8 cells; sequential or simultaneous staining
Procedure: as §1

[9] = system: F39F cells; settings: flow cytometry
Procedure: as §1

[10] = system: V3 loop mAbs 7B9 and F39F on beads; settings: flow cytometry
Procedure: as §2, §1

[11] = system: total naïve splenic C57BL/6 B cells; settings: C57BL/6, APC-labeled tetramer
Procedure: as §3, §4, §5, §6

For “Biotin-GGGGGDWEYSVWLSN [dsDNA mimic tetramer]”, the “binding to mAb cell lines” value [1] was “no cell line bound”, the “binding to any antibody on beads” value [2] was “did not bind” and the “binding to total naïve splenic B cells” value [3] was “no significant binding above background”.

In the case of enfuvirtide, the “anti-2F5 serum Ab response” value [4] is reported as “robust anti-2F5 serum Ab responses” and the “anti-2F5 serum Ab titers” value [5] is reported as “no appreciable anti-2F5 serum Ab titers”.

For “Biotin-GGGTRPNNNTRKSIHIGPGRAFYATE [62.19 V3 tetramer]”, the koff [6] was 0.60 s^−1 × 10^−3, the kon [6] was 60.5 M^−1s^−1 × 10^3 and the koff [7] was 0.19 s^−1 × 10^−3. For the same substance, the kon [7] was 35.6 M^−1s^−1 × 10^3, the “effect of PE labeled anti-IgG heavy chain reagent on tetramer binding” value [8] was “does not inhibit” and the “binding to mAb cell line” value [9] was “bound”. The “binding to antibody-coated beads” value [10] was “bound to both V3 loop mAbs 7B9 and F39F”, the “binding to total naïve splenic B cells” value [11] was “minimal binding” and the “binding to total naïve splenic B cells” value [3] was “minimal binding”.
